The test system of one data set is S. pyogenes A-9604. In words: M.I.C., tube dilution. It counts as cell-based. The conditions noted are these: Streptococcus pyogenes, A9604; overnight incubation at 37° C., Nutrient Broth; read-out: MIC.
A further data set concerns P. aeruginosa A21213. In words: M.I.C., tube dilution. It counts as cell-based. The conditions noted are these: Pseudomonas aeruginosa.
A short description of data set [1]: Blood levels in mice after intramuscular administration.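 Note: compounds dissolved in 0.1 M phosphate buffer at pH 7, data from one experiment using four mice for each compound.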 The following applies: mouse, blood, im, 20 mg/kg.
Description: Compounds were solubilized in 0.1 M phosphate buffer pH 7.
a single test; 4 mice used per compound.
Compounds were solubilized in 0.1 M phosphate buffer, pH 7.
on a single test; 4 mice per compound.
A further data set has as its system P. vulgaris A21559. Description: M.I.C., tube dilution. The data set is classed as cell-based. The following applies: Proteus vulgaris, A21559, overnight incubation at 37° C., Nutrient Broth; read-out: MIC.
For a further data set, the system named is S. pneumoniae A-9585. Description: M.I.C., tube dilution. The data set is classed as cell-based. The following applies: Streptococcus pneumoniae, A9585; overnight incubation at 37° C., Nutrient Broth; read-out: MIC.
A short description of data set [2]: Half-life (stability) in buffer solution. The data set is classed as physicochemical. The conditions noted are these: for half-life at 100 µM: 10^-4 M. How it is done: T1/2 =9.8 h (measured at a concentration of 10^-4 M in phosphate buffer pH 7.4 at 36.8° C.).
UV (phosphate buffer, pH 7.4) λmax 294 nm (ε=8,202); T1/2 (phosphate buffer, pH 7.4, M=0.967, T=37° C.) 9.1 h.
(c of 10^-4 M in pH 7.4 phosphate buffer.
.tau.1/2 =20.8 h measured at 37° C. in buffer (pG 7.4) for a concentration of 10^-4 M.
.tau.1/2 =12.5 h measured at 37° C. in buffer pH 7.4 for a concentration of 10^-4 M.
h (measured for a concentration of 10^-4 M at 36.8° C. in buffer pH 7.4).
.tau.1/2 =26.0 h (measured for a concentration of 10^-4 M at 36.8° C. in buffer pH 7.4).
.tau.1/2 =16.6 h (measured at 36.8° C., pH 7.4 for a concentration of 10^-4 M) and (5R, 6S) 6-(1R-hydroxyethyl)7-oxo-3-[1,2,6-trimethylpyridinium-4-yl)methylthio]-1-azabicyclo[3.2.0 hept-2-ene-2-carboxylate, 0.010 g, 0.7%;
.tau.1/2 =11.6 h (measured for a concentration of 10^-4 M at 36.8° C. in buffer pH 7.4).
.tau.1/2 =13.4 h (measured for a concentration of 10^-4 M at 36.8° C. in buffer pH 7.4).
.tau.1/2 =14.4 h (measured for a concentration of 10^-4 M at 36.8° C. in buffer pH 7.4).
T 1/2: 10.2 h (biological buffer).
.tau.1/2 =10.2 h measured at 36.8° C. for a concentration of 10^-4 M in buffer pH 7.4.

The next data set deals with S. faecalis A20688. In words: M.I.C., tube dilution. The following applies: Enterococcus faecalis, A20688, overnight incubation at 37° C., Nutrient Broth; read-out: MIC. The data set is classed as cell-based.
Another data set concerns S. aureus A-9537. In words: M.I.C., tube dilution. It counts as cell-based. The following applies: Staphylococcus aureus, A9537; +50% serum; read-out: MIC.
Where [3] appears, read: (phosphate) buffer pH 7.4, 36.8° C., read-out: T1/2 (half-life in solution) (converted).
[4] abbreviates: biological buffer, read-out: T 1/2 (half-life in solution) (converted).
The mark [5] stands for this setting: (phosphate) buffer pH 7.4, 37° C., read-out: half-life in solution (converted).

In brackets after ≈: the same amount, converted by molar mass. Like-named read-outs stand apart in the source and are kept apart here.

For the molecule `C[C@@H](O)[C@H]1C(=O)N2C(C(=O)[O-])=C(SCc3n(Cc4ccccc4)cc[n+]3C)C[C@H]12` [Example 13, 3-(N Methyl-N'-benzylimidazole-2-yl-methanethio)-6α-[1-(R)-hydroxyethyl]-7-oxo-1-azabicyclo(3.2.0)hept-2-ene-2-carboxylate], the MIC with S. pyogenes A-9604 was 0.5 ng/mL (≈ 0.00121 µM); with P. aeruginosa A21213 (A21213, overnight incubation at 37° C., Nutrient Broth, read-out: MIC), 2 µg/mL (≈ 4.84 µM); in the data set on P. vulgaris A21559, 0.008 µg/mL (≈ 0.0193 µM); in the data set with S. pneumoniae A-9585, 0.5 ng/mL (≈ 0.00121 µM). Moreover, the AUC in data set [1] came to 6400 ng·h/mL. Further, the Cmax in data set [1] came out at 14800 ng/mL. The molecule also had a half-life in data set [1] of 11 min. Regarding `Cc1cc(CSC2=C(C(=O)[O-])N3C(=O)[C@H]([C@@H](C)O)[C@H]3C2)c[n+](C)c1` [Example 37], the half-life at 100 µM in data set [2] (setting [3]) is 804 min. On to `Cc1cc(CSC2=C(C(=O)[O-])N3C(=O)[C@H]([C@@H](C)O)C3[C@H]2C)c[n+](C)c1` (stereo in doubt) [Example 35, (5R,6S) 3-[(1,5-dimethylpyridinium-3-yl)methylthio]-6-(1R-hydroxyethyl)-4R-methyl-7-oxo-1-azabicyclo[3.2.0]hept-2-ene-2-carboxylate], for which, in data set [2] (setting [3]), the half-life at 100 µM is 1560 min. On the same count and under the same terms, the result for `Cc1cc(C)[n+](C)c(CSC2=C(C(=O)[O-])N3C(=O)[C@H]([C@@H](C)O)[C@H]3C2)c1` [(5R,6S) 6-(1R-hydroxyethyl)-7-oxo-3-[(1,4,6-trimethylpyridinium-2-yl)methylthio]-1-azabicyclo[3.2.0]hept-2-ene-2-carboxylate] reads 996 min. In the case of `C[C@@H](O)[C@H]1C(=O)N2C(C(=O)[O-])=C(SCc3cncc[n+]3C)[C@H](C)[C@H]12` [Example 46, (5R,6S)-6-(1R-Hydroxyethyl)-4R-methyl-3-[(1-methyl-1,4-pyrazinium-2-yl)-methylthio]-7-oxo-1-azabicyclo[3.2.0]-hept-2-ene-2-carboxylate], the half-life in data set [2] (biological buffer, unit inferred, read-out: T1/2 (half-life in solution) (converted)) was 738 min. `C[C@@H](O)[C@H]1C(=O)N2C(C(=O)[O-])=C(SCc3cs[n+](C)n3)C[C@H]12` [Example 16, (5R,6S) 6-(1R-hydroxyethyl)-3-(2-methyl-1,2,3-thiadiazolium-4-ylmethylthio)-7-oxo-1-azabicyclo[3.2.0]hept-2-ene-2-carboxylate]: the half-life at 100 µM in data set [2] (setting [3]) is 588 min. For the same molecule, the results for the MIC in the data set on P. aeruginosa A21213 (A21213), in the data set on S. faecalis A20688 and with P. vulgaris A21559 were 0.13 µg/mL (≈ 0.381 µM), 1 µg/mL (≈ 2.93 µM) and 0.03 µg/mL (≈ 0.0879 µM), respectively.

Regarding `C[C@@H](O)[C@H]1C(=O)N2C(C(=O)[O-])=C(SCc3cncc[n+]3C)C[C@H]12` [Example 45, (5R,6S)-6-(1R-Hydroxyethyl)-3-[(1-methyl-1,4-pyraziinium-2-yl)methylthio]-7-oxo-1-azabicyclo(3.2.0)-hept-2-ene-2-carboxylate], the half-life in data set [2] (setting [4]) is 612 min. Turning to `Cc1c(CSC2=C(C(=O)[O-])N3C(=O)[C@H]([C@@H](C)O)[C@H]3C2)sc[n+]1C` [Example 50], the half-life at 100 µM in data set [2] (pH 7.4 phosphate buffer, temperature not given, read-out: half-life in solution (converted)) is 660 min. On to `Cc1cc(CSC2=C(C(=O)[O-])N3C(=O)[C@H]([C@@H](C)O)[C@H]3C2)cc(C)[n+]1C` [(5R,6S) 6-(1R-hydroxyethyl)-7-oxo-3-[(1,2,6-trimethylpyridinium-4-yl)methylthio]-1-azabicyclo[3.2.0]hept-2-ene-2-carboxylate], for which the half-life at 100 µM in data set [2] (setting [3]) was 696 min. With `Cc1ccc(CSC2=C(C(=O)[O-])N3C(=O)[C@H]([C@@H](C)O)C3[C@H]2C)c[n+]1C` (stereo in doubt) [Example 34, (5R,6S) 3-[(1,6-dimethylpyridinium-3-yl)methylthio]-6-(1R-hydroxyethyl)-4R-methyl-7-oxo-1-azabicyclo[3.2.0]hept-2-ene-2-carboxylate], in data set [2] (setting [3]), the half-life at 100 µM is 1670 min. On the same count and under the same terms, the result for `Cc1ccc(CSC2=C(C(=O)[O-])N3C(=O)[C@H]([C@@H](C)O)[C@H]3C2)c[n+]1C` [Example 38, (5R,6S) 3-[(1,6-dimethylpyridinium-3-yl)methylthio]-6-(1R-hydroxyethyl)-7-oxo-1-azabicyclo[3.2.0]hept-2-ene-2-carboxylate] reads 864 min; that for `COCC[n+]1ccccc1CSC1=C(C(=O)[O-])N2C(=O)[C@H]([C@@H](C)O)[C@H]2C1` [Example 52, (5R,6S) 6-(1R-hydroxyethyl)-3-[{1-(2-methoxyethyl)pyridinium-2-yl}methylthio]-7-oxo-1-azabicyclo[3.2.0]hept-2-ene-2-carboxylate], 594 min.

Turning to `Cc1cccc(CSC2=C(C(=O)[O-])N3C(=O)[C@H]([C@@H](C)O)[C@H]3C2)[n+]1C` [Example 26, (5R,6S) 3-[(1,6-dimethylpyridinium-2-yl)methylthio]-6-(1R-hydroxyethyl)-7-oxo-1-azabicyclo[3.2.0]hept-2-ene-2-carboxylate], the half-life at 100 µM in data set [2] (setting [5]) was 750 min. With `C[C@@H](O)[C@H]1C(=O)N2C(C(=O)[O-])=C(SCc3cn(C)[n+](C)c3)C[C@H]12` [Example 47], the half-life in data set [2] (setting [4]) was 912 min. With `C[C@@H](O)[C@H]1C(=O)N2C(C(=O)[O-])=C(SCc3n(C)nc[n+]3C)C[C@H]12` [Example 19, 3-[5-(1,4-dimethyl-1,2,4-triazolium)-methanethio]-6α-[1-(R)-hydroxyethyl]-7-oxo-1-azabicyclo[3.2.0]hept-2-ene-2-carboxylate], the half-life in data set [2] (phosphate buffer, pH 7.4, M=0.967, T=37° C., read-out: T1/2 (half-life in solution) (converted)) is 546 min; in data set [1], 16.7 min. Moreover, the AUC in data set [1] came to 15100 ng·h/mL. For the same molecule, the Cmax in data set [1] was determined as 27000 ng/mL. For the same molecule, the MIC with P. vulgaris A21559 worked out at 0.016 µg/mL (≈ 0.0473 µM); in the data set on S. aureus A-9537, 8 ng/mL (≈ 0.0236 µM).

Regarding `Cc1cc(CSC2=C(C(=O)[O-])N3C(=O)[C@H]([C@@H](C)O)C3[C@H]2C)cc(C)[n+]1C` (stereo in doubt) [Example 51B, (5R,6S) 6-(1R-Hydroxyethyl)-4R-methyl-7-oxo-3-[(1,2,6-trimethylpyridinium-4-yl)-methylthio]-1-azabicyclo[3.2.0]hept-2-ene-2-carboxylate], the half-life at 100 µM in data set [2] (setting [3]) was 1790 min. On to `Cc1c(CSC2=C(C(=O)[O-])N3C(=O)[C@H]([C@@H](C)O)C3[C@H]2C)sc[n+]1C` (stereo in doubt) [Example 54, (5R,6S) 3-[(3,4-Dimethylthiazolium-5-yl)methylthio]-6-(1'R-hydroxyethyl)-4R-methyl-7-oxo-1-azabicyclo[3.2.0]hept-2-ene-2-carboxylate], for which, in data set [2] (setting [5]), the half-life at 100 µM was 1140 min. In data set [1], `C[C@@H](O)[C@H]1C(=O)N2C(C(=O)[O-])=C(SCc3scc[n+]3C)C[C@H]12` [Example 11, 3-[2-(N-Methylthiazolium)methylthio]-6α-[1-(R)-hydroxyethyl]-7-oxo-1-azabicyclo(3.2.0)hept-2-ene-2-carboxylate] came in with an AUC of 7400 ng·h/mL, a peak concentration (Cmax) of 14900 ng/mL and a half-life of 11 min. For the same molecule, the MIC with S. faecalis A20688 worked out at 0.5 µg/mL (≈ 1.47 µM). Also, in the data set on P. vulgaris A21559, the MIC was determined as 0.03 µg/mL (≈ 0.0881 µM). Consider `Cc1cccc(CSC2=C(C(=O)[O-])N3C(=O)[C@H]([C@@H](C)O)C3[C@H]2C)[n+]1C` (stereo in doubt) [Example 25, (5R,6S) 3-[(1,6-dimethylpyridinium-2-yl)methylthio]-6-(1R-hydroxyethyl)-4R-methyl-7-oxo-1-azabicyclo[3.2.0]hept-2-ene-2-carboxylate], for which, in data set [2] (setting [5]), the half-life at 100 µM is 1250 min. As to `Cc1cc(C)[n+](C)c(CSC2=C(C(=O)[O-])N3C(=O)[C@H]([C@@H](C)O)C3[C@H]2C)c1` (stereo in doubt) [Example 51A, (5R,6S) 6-(1R-Hydroxyethyl)-4R-methyl-7-oxo-3-[(1,4,6-trimethylpyridinium-2-yl)-methylthio]-1-azabicyclo[3.2.0]hept-2-ene-2-carboxylate], the half-life at 100 µM in data set [2] (phosphate buffer, 36.7° C., read-out: t 1/2 (half-life in solution) (converted)) is 1340 min.

`C#CCC[n+]1ccccc1CSC1=C(C(=O)[O-])N2C(=O)[C@H]([C@@H](C)O)[C@H]2C1` [Example 53, (5R,6S) 3[(1-{but-3-yn-1-ylpyridinium-2-yl)}methylthio]-6-(1R-hydroxyethyl)-7-oxo-1-azabicyclo[3.2.0]hept-2-ene-2-carboxylate]: the half-life at 100 µM in data set [2] (setting [3]) is 612 min.

These data come from patent publication US4732977A, “Carbapenem antibiotics” (priority 1986, dated 1988).
